According to ChEMBL document CHEMBL4393704, “Synthesis and biological evaluation of dihydroquinazoline-2-amines as potent non-nucleoside reverse transcriptase inhibitors of wild-type and mutant HIV-1 strains” (Eur J Med Chem, 2019):

Tests used:
[1] = Selectivity index, ratio of CC50 for human MT4 cells to EC50 for HIV-1 3B infected in MT4 cells; assay type: toxicity, cell-based; conditions: HIV-1 3B infected MT4 cells, read-out: Ratio CC50/EC50
[2] = tested on: Human immunodeficiency virus 1; assay: Antiviral activity against HIV-1 3B harboring reverse transcriptase E138K mutant infected in MT4 cells measured after 5 days by MTT assay; assay type: functional, organism-based; conditions: Human immunodeficiency virus 1, 3B, MT4, 120 h
[3] = tested on: Human immunodeficiency virus 1; assay: Antiviral activity against wild type HIV-1 3B infected in MT4 cells measured after 5 days by MTT assay; assay type: functional, organism-based; conditions: Human immunodeficiency virus 1, 3B, MT4, 120 h
[4] = tested on: Human immunodeficiency virus 1; assay: Antiviral activity against HIV-1 3B harboring reverse transcriptase RES056 mutant infected in MT4 cells measured after 5 days by MTT assay; assay type: functional, organism-based; conditions: Human immunodeficiency virus 1, 3B, MT4, 120 h
[5] = Cytotoxicity against human MT4 cells measured after 5 days by MTT assay; assay type: cell-based
[6] = target: Human immunodeficiency virus type 1 reverse transcriptase (Human immunodeficiency virus 1, UniProt Q72547); assay: Inhibition of recombinant wild-type HIV1 3B reverse transcriptase assessed as reduction in biotin-dUTP incorporation using poly(rA)/oligo(dT)16 as template primer incubated for 1 hr followed by the addition of (DIG)-dUTP and biotin-labeled dNTPs by ELISA
[7] = tested on: Human immunodeficiency virus 1; assay: Potency index, ratio of ETV EC50 to compound EC50 for antiviral activity against HIV-1 3B harboring reverse transcriptase E138K mutant infected in MT4 cells measured after 5 days by MTT assay; assay type: functional
[8] = tested on: Human immunodeficiency virus 1; assay: Potency index, ratio of EFV EC50 to compound EC50 for antiviral activity against wild type HIV-1 3B infected in MT4 cells measured after 5 days by MTT assay; assay type: functional
[9] = tested on: Human immunodeficiency virus 1; assay: Potency index, ratio of ETV EC50 to compound EC50 for antiviral activity against wild type HIV-1 3B infected in MT4 cells measured after 5 days by MTT assay; assay type: functional

Compound	selectivity ratio [1]	EC50 [2]	EC50 [3]	EC50 [4]	CC50 at 120 h [5]	IC50 [6]	Ratio EC50 [7]	Ratio EC50 [8]	Ratio EC50 [9]
COc1ccc(NC2=Nc3ccc(Cl)cc3C(C#CC3CC3)(C(F)(F)F)N2)cc1 (stereo not given)	32	410 nM	260 nM	> 8400 nM	8400 nM	–	–	–	–
FC(F)(F)C1(C#CC2CC2)NC(Nc2ccccc2Br)=Nc2ccc(Cl)cc21 (stereo not given)	133	160 nM	88 nM	1800 nM	11000 nM	3.4 nM	–	–	–
Cc1ccc(NC2=Nc3ccc(Cl)cc3C(C#CC3CC3)(C(F)(F)F)N2)cc1 (stereo not given)	20	400 nM	250 nM	> 4900 nM	5000 nM	–	–	–	–
Fc1ccc(NC2=Nc3ccc(Cl)cc3C(C#CC3CC3)(C(F)(F)F)N2)cc1F (stereo not given)	5	> 1800 nM	360 nM	> 1800 nM	1800 nM	–	–	–	–
FC(F)(F)C1(C#CC2CC2)NC(Nc2ccccc2)=Nc2ccc(Cl)cc21 (stereo not given)	21	380 nM	110 nM	> 2400 nM	2400 nM	–	–	–	–
N#Cc1cccc(NC2=Nc3ccc(Cl)cc3C(C#CC3CC3)(C(F)(F)F)N2)c1 (stereo not given)	5	650 nM	440 nM	> 2200 nM	2200 nM	–	–	–	–
Cc1cccc(NC2=Nc3ccc(Cl)cc3C(C#CC3CC3)(C(F)(F)F)N2)c1 (stereo not given)	10	360 nM	210 nM	> 2100 nM	2100 nM	–	–	–	–
Fc1ccccc1NC1=Nc2ccc(Cl)cc2C(C#CC2CC2)(C(F)(F)F)N1 (stereo not given)	31	140 nM	100 nM	> 3100 nM	3100 nM	–	–	–	–
N#Cc1ccc(NC2=Nc3ccc(Cl)cc3C(C#CC3CC3)(C(F)(F)F)N2)cc1 (stereo not given)	2300	3.5 nM	0.84 nM	66 nM	1900 nM	10 nM	2	2	9
Cc1ccc(NC2=Nc3ccc(Cl)cc3C(C#CC3CC3)(C(F)(F)F)N2)cc1C (stereo not given)	8	560 nM	610 nM	> 5800 nM	5900 nM	–	–	–	–
Cc1ccccc1NC1=Nc2ccc(Cl)cc2C(C#CC2CC2)(C(F)(F)F)N1 (stereo not given)	30	400 nM	140 nM	> 4100 nM	4100 nM	–	–	–	–
FC(F)(F)C1(C#CC2CC2)NC(Nc2cccc(Cl)c2)=Nc2ccc(Cl)cc21 (stereo not given)	9	480 nM	210 nM	> 2000 nM	2000 nM	–	–	–	–
Cc1cc(C)cc(NC2=Nc3ccc(Cl)cc3C(C#CC3CC3)(C(F)(F)F)N2)c1 (stereo not given)	6	600 nM	360 nM	> 2100 nM	2100 nM	–	–	–	–
Fc1cccc(NC2=Nc3ccc(Cl)cc3C(C#CC3CC3)(C(F)(F)F)N2)c1 (stereo not given)	12	340 nM	160 nM	> 2000 nM	2000 nM	–	–	–	–
FC(F)(F)C1(C#CC2CC2)NC(Nc2ccc(Cl)c(Cl)c2)=Nc2ccc(Cl)cc21 (stereo not given)	70	170 nM	30 nM	> 2100 nM	2100 nM	3.7 nM	–	–	–
COc1cccc(NC2=Nc3ccc(Cl)cc3C(C#CC3CC3)(C(F)(F)F)N2)c1 (stereo not given)	44	290 nM	63 nM	> 2600 nM	2700 nM	1.1 nM	–	–	–
Fc1ccc(NC2=Nc3ccc(Cl)cc3C(C#CC3CC3)(C(F)(F)F)N2)cc1Cl (stereo not given)	10	460 nM	190 nM	> 1800 nM	1900 nM	–	–	–	–
FC(F)(F)C1(C#CC2CC2)NC(Nc2ccc(Br)cc2)=Nc2ccc(Cl)cc21 (stereo not given)	> 8	> 3400 nM	450 nM	> 3400 nM	> 3400 nM	–	–	–	–
COc1ccccc1NC1=Nc2ccc(Cl)cc2C(C#CC2CC2)(C(F)(F)F)N1 (stereo not given)	58	190 nM	150 nM	> 8600 nM	8600 nM	–	–	–	–
NC(=O)c1ccc(NC2=Nc3ccc(Cl)cc3C(C#CC3CC3)(C(F)(F)F)N2)cc1 (stereo not given)	58	160 nM	220 nM	> 2900 nM	12000 nM	–	–	–	–
FC(F)(F)c1cccc(NC2=Nc3ccc(Cl)cc3C(C#CC3CC3)(C(F)(F)F)N2)c1 (stereo not given)	64	350 nM	51 nM	> 3200 nM	3300 nM	4.5 nM	–	–	–
FC(F)(F)C1(C#CC2CC2)NC(Nc2cccc(Br)c2)=Nc2ccc(Cl)cc21 (stereo not given)	14	420 nM	150 nM	> 2100 nM	2100 nM	–	–	–	–
Fc1ccc(NC2=Nc3ccc(Cl)cc3C(C#CC3CC3)(C(F)(F)F)N2)cc1 (stereo not given)	9	460 nM	250 nM	> 2300 nM	2400 nM	–	–	–	–
O=[N+]([O-])c1cccc(NC2=Nc3ccc(Cl)cc3C(C#CC3CC3)(C(F)(F)F)N2)c1 (stereo not given)	14	360 nM	120 nM	> 1600 nM	1600 nM	–	–	–	–
O=C1Nc2ccc(Cl)cc2[C@@](C#CC2CC2)(C(F)(F)F)O1 [EFAVIRENZ]	–	2 nM	–	55 nM	> 2000 nM	–	–	–	–
Cc1cc(C#N)cc(C)c1Oc1nc(Nc2ccc(C#N)cc2)nc(N)c1Br [ETRAVIRINE]	> 923	6.3 nM	–	15 nM	> 2000 nM	–	–	–	–
